Measurements: PMC9469208 (Journal of Medicinal Chemistry, 2022)
Read-outs that look alike come from different tables or passages of the source.

Columns and labels:
human SV2A = target: T1, human SV2A (Homo sapiens, UniProt Q7L0J3); assay: SV2A radioligand binding assay ([3H]brivaracetam); conditions: [3H]brivaracetam 3 nM, human SV2A-expressing CHO cell lysate
T1 construct: expressed in transfected cells; host or cells: CHO cells
Experimental: (§1) The competitive radioligand-binding assay was essentially performed as previously described.[96],[97] The SV2A-containing preparations, either cell lysate of human SV2A-expressing CHO cells, or membrane preparations of mouse brain cortex, were incubated with the radioligand [^3H]brivaracetam (3 nM) in the absence or presence of test compound for 4 h. Incubation was performed in 500 μL of Tris-buffer (50 mM Tris–HCl, pH 7.4) containing 2 mM MgCl2 at 4 °C on a rocking shaker. […] The test compounds were dissolved in dimethyl sulfoxide (DMSO) and further diluted in DMSO. The DMSO concentration in all vials was adjusted to 2%. The separation of bound and unbound radioligand was performed via rapid vacuum filtration using GF/C glass fiber filters that had been presoaked in Tris-buffer containing 0.1% polyethyleneimine for 30 min. The filters were rapidly washed three times with about 1 mL of Tris-buffer each and subsequently placed in a drying oven at 50 °C for 90 min. The filters were then transferred to scintillation vials and 2.5 mL of scintillation cocktail (ProSafe FC+, Meridian Biotechnologies Ltd.) was added. After an incubation period of at least 9 h, radioactivity was measured in a scintillation counter. Results were analyzed by GraphPad Prism 7.0.

mouse SV2A = target: T2, mouse SV2A (Mus musculus, UniProt Q9JIS5); assay: SV2A radioligand binding assay ([3H]brivaracetam); conditions: mouse brain cortex membranes
T2 construct: membrane preparations of mouse brain cortex; from tissue; host or cells: mouse brain cortex membranes
T2 sequence (Q9JIS5 whole entry): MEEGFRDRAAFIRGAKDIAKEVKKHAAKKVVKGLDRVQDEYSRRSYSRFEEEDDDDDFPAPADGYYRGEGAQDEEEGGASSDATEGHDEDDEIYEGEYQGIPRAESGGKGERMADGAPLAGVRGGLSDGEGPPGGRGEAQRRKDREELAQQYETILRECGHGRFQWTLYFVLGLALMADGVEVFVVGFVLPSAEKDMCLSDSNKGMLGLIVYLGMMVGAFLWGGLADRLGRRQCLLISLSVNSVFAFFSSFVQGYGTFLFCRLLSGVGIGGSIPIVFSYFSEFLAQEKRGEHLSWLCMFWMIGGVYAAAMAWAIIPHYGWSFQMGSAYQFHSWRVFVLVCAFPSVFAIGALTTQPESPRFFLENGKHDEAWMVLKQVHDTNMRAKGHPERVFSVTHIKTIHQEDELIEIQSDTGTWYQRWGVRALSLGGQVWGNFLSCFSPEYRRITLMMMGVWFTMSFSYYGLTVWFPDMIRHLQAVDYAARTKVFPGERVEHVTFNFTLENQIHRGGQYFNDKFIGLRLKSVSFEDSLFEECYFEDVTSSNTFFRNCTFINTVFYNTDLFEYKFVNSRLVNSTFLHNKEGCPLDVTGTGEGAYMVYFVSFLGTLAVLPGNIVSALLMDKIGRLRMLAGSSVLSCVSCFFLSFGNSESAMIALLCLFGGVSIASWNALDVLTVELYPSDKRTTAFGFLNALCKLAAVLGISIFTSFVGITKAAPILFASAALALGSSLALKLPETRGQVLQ
Experimental: as §1

[1] = test system: NMDA receptors (tonic NMDA currents)
[2] = test system: maximal electroshock seizures in mice; conditions: mouse, in vivo; cited from earlier work
[3] = test system: PTZ-induced seizures in mice; conditions: mouse, in vivo; cited from earlier work
[4] = test system: 6 Hz (32 mA) seizures in mice; conditions: mouse, in vivo; cited from earlier work
GlyRA1 = target: T3, GlyRA1 (Homo sapiens, UniProt P23415); format: cell-based
T3 construct: purchased Cerep (Eurofins), Poitiers, France; Promega P450-Glo; in-house COS-7 uptake assays
T3 sequence (P23415 29-457): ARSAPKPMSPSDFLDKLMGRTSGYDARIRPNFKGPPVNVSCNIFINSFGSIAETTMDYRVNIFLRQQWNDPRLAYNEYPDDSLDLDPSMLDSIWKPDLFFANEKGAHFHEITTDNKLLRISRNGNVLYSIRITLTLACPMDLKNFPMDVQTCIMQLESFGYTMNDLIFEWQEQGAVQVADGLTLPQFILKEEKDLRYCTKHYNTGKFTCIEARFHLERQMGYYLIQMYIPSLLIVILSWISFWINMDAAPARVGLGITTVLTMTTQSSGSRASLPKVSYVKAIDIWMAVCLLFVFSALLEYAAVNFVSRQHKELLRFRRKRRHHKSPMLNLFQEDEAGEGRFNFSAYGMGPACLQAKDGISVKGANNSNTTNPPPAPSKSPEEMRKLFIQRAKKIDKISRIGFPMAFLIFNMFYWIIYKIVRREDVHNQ

[5] = test system: motor coordination of mice; conditions: mouse, in vivo, ip; cited from earlier work
hCav3.2 = hCav3.2 (Homo sapiens, UniProt O95180); assay: cell-based
Chain of hCav3.2 (O95180 whole entry): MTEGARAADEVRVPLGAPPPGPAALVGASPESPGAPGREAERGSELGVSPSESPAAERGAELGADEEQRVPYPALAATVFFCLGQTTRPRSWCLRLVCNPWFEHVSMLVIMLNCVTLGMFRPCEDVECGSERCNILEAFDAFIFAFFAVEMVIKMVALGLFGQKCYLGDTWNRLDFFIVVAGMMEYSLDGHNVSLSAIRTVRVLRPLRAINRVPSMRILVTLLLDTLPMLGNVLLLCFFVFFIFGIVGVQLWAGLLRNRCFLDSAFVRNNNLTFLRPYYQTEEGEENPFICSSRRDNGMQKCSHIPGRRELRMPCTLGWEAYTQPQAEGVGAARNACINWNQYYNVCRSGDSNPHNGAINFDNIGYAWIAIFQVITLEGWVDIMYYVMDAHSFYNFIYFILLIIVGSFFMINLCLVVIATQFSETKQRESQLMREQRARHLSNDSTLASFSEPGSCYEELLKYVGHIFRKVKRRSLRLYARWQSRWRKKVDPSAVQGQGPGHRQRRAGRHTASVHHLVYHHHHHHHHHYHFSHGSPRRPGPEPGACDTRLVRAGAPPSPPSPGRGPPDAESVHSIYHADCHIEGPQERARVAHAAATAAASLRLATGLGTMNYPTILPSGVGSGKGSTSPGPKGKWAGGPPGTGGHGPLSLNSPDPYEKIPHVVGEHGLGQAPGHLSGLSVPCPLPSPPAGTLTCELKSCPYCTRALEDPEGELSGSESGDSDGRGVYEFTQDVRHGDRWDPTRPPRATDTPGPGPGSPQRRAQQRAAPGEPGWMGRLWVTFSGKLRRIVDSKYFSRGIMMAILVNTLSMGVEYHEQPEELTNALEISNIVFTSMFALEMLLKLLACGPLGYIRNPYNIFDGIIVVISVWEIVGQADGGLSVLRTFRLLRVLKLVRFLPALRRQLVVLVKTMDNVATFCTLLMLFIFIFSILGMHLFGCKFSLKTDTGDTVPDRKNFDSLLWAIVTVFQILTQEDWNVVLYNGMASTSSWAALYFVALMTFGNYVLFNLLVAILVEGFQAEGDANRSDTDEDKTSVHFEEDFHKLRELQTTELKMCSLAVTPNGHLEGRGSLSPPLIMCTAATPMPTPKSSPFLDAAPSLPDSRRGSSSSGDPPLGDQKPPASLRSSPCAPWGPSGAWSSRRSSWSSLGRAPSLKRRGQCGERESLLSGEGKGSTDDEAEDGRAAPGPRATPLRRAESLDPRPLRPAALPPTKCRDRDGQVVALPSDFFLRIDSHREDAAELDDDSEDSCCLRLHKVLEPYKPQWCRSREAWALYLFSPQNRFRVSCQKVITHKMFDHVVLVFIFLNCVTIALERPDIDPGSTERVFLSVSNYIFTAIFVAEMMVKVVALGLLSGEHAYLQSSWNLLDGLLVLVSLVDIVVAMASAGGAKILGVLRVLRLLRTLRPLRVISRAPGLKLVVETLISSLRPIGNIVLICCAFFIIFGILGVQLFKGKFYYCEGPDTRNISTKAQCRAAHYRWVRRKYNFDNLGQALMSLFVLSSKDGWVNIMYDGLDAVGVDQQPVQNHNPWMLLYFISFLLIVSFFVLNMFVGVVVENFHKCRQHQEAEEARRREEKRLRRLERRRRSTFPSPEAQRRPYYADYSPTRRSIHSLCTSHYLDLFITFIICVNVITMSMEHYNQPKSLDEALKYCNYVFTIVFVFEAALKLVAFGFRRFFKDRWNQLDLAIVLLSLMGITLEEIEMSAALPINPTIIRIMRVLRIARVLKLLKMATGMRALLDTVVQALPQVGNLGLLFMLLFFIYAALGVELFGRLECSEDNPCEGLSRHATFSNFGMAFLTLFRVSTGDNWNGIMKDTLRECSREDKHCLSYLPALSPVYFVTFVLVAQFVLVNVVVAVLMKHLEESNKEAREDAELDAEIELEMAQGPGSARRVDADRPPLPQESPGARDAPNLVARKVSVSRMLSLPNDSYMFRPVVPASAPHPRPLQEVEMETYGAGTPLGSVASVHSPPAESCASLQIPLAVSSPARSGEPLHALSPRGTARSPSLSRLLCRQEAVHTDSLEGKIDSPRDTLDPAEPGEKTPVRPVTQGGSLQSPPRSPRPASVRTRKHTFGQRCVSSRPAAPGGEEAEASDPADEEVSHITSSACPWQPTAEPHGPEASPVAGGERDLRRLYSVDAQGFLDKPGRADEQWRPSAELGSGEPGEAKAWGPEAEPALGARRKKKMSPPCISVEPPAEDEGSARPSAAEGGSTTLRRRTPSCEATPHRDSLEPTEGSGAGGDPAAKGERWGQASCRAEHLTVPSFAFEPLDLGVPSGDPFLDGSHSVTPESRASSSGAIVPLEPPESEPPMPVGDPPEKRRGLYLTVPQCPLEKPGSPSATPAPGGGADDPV

[6] = test system: PTZ-induced kindling in mice; conditions: VPA 150 mg/kg i.p. (positive control)

T1 sequence (Q7L0J3 whole entry): as the sequence (Q9JIS5 whole entry) above, with A62S, A71T, D144E, T154A, S440G, A482S, V572I, L634M counted along it

C[C@@H](C(=O)NCc1ccccc1)N1C(=O)CCC1=O [(S)-7, (S)-N-Benzyl-2-(2,5-dioxopyrrolidin-1-yl)propanamide]
Ki (human SV2A): 255 ± 69 µM
Binding to mouse SV2A (mouse SV2A): no binding observed

NC(CCCP(=O)(O)O)C(=O)O (centres unmarked) [AP-5]
effect on tonic NMDA currents [1]: fully inhibited

C=C(C)[C@@H]1CCC(C)=C[C@H]1c1c(O)cc(CCCCC)cc1O [CBD, cannabidiol]
ED50 (MES) [2]: 80 (65.5–96.0) mg/kg
ED50 (scPTZ) [3]: 120 (98.5–146) mg/kg

CCC1(C)CC(=O)NC1=O (centres unmarked) [ETX, ethosuximide]
ED50 (6 Hz 32 mA) [4]: >200 mg/kg
ED50 (scPTZ) [3]: 140.4 (115.8–170.2) mg/kg

NCC(=O)O [Glycine, reference compound]
GlyRA1 agonist, % Control, Mean (GlyRA1): 89.99%
GlyRA1 agonist, % Control, n1 (GlyRA1): 92.59%
GlyRA1 agonist, % Control, n2 (GlyRA1): 87.38%

CC(C(=O)NCc1ccccc1F)N1C(=O)CCC1=O (centres unmarked) [II]
TD50 (rotarod) [5]: 300.9 (256.7–352.6) mg/kg

COC[C@@H](NC(C)=O)C(=O)NCc1ccccc1 [LCS, lacosamide]
ED50 (6 Hz 32 mA) [4]: 5.3 (3.5–7.8) mg/kg
ED50 (MES) [2]: 9.2 (8.5–10.0) mg/kg

CC[C@@H](C(N)=O)N1CCCC1=O [LEV, levetiracetam]
ED50 (MES) [2]: >500 mg/kg

COCC(=O)O[C@]1(CCN(C)CCCc2nc3ccccc3[nH]2)CCc2cc(F)ccc2[C@@H]1C(C)C [Mibefradil, reference compound]
inhibition at 30 µM (hCav3.2; read-out: hCav3.2 % Inhibition, Mean): 95.5%
inhibition at 30 µM (hCav3.2; read-out: hCav3.2 % Inhibition, n1): 96.1%
inhibition at 30 µM (hCav3.2; read-out: hCav3.2 % Inhibition, n2): 94.8%

CCCC(CCC)C(=O)O [VPA, valproic acid]
effect on kindling development [6]: suppressed kindling development
ED50 (6 Hz 32 mA) [4]: 130.6 (117.6–145.2) mg/kg
ED50 (scPTZ) [3]: 239.4 (209.2–274.1) mg/kg
